The text below walks through data of patent publication US9314506B2, “Methods for increasing insulin secretion by co-stimulation of corticotropin-releasing factor receptors” (Research Development Foundation, priority 2011, dated 2016).

One assay concerns Human islets. The experiment in a line: Insulin secretion from cultured human islets (insulin ELISA). The assay is classed as cell-based. The settings on record: FIG. 1; for Insulin secretion, single agonist: human islets, 60 min stimulation with glucose and peptide, single CRF receptor agonist added. How it is done:
Human islets were handpicked twice and cultured overnight in CMRL-1066 medium (Invitrogen™) supplemented with 10% fetal bovine serum (FBS) and penicillin/streptomycin at 37° C., 5% CO2. Islets were starved in RPMI 1640 medium supplemented with 1.4 mM glucose and 0.1% BSA for 60 min and then were transferred into 1.2 mL of medium (RPMI 1640 supplemented with 2.8 mM glucose, 0.1% BSA) in 24-well plates at 100 islets/well. After 60 min, 600 μL of medium was collected for the determination of basal insulin release, and then islets were stimulated for 60 min with glucose and peptide as indicated in RPMI 1640 containing 0.1% BSA. Samples were diluted 20 times in RPMI 1640 with 0.1% BSA and were stored at −20° C. until determination of insulin concentrations with an insulin ELISA kit (Mercodia AB).
Peptides used in the studies were ovine CRF (oCRF), a selective CRF-R1 agonist; human Urocortin 3 (hUcn 3), a selective CRF-R2 agonist; antalarmin, a selective CRF-R1 antagonist; and astressin2-B, a selective CRF-R2 antagonist. […] Insulin secretion was enhanced by addition of either a CRF1 receptor agonist (oCRF) or a CRF2 receptor agonist (hUcn 3). […] The synergistic enhancement was inhibited by the addition of either a CRF1 receptor antagonist (antalarmin) or a CRF2 receptor antagonist (astressin2-B) to the cells (FIG. 1).
On the technique in general: ELISA stands for enzyme-linked immunosorbent assay.

Assay [1] deals with pancreatic beta cell mass. The assay can be described thus: Beta cell mass in doxycycline-inducible, beta cell-specific Ucn 1 transgenic mice. The format is in vivo. The settings on record: bitransgenic mouse, doxycycline for 6 weeks (21 days to 9 weeks of age), vs single transgenic controls on dox or bitransgenic without dox; FIG. 5. An excerpt: A transgenic mouse model that features beta cell-specific, doxycycline-inducible expression of Ucn 1 was generated by routine transgenic techniques. Single transgenic mice were obtained comprising either an expressible tetracycline transactivator (tTA) protein under the control of a pancreas-specific Insulin2 promoter (Jax Stock#008250 STOCK Tg(Ins2-rtTA)2Efr/J) or expressible Ucn1 under the control of a tTA protein-activated promoter (see, e.g., Sun et al., 2007 and Mallo, 2006). Single transgenic mice were crossed to generate the bitransgenic mice referenced in the studies. Thus, transgenic Ucn 1 expression in beta cells requires the presence of two transgenic cassettes as well as the administration of doxycycline. […] Bitransgenic animals, along with single transgenic controls, were administered doxycyline continuously as indicated from 21 days until 9 weeks of age. […] Sections were mounted in fluorescence mounting media containing dapi counterstain. Each section was scanned and the total pancreas surface area (based on the dapi counterstain) and the total beta cell surface area (based on the insulin-Cy3 stain) were quantified using standard morphometry techniques using Metamorph software. Beta cell area in each animal was expressed as the insulin+ surface area as a percentage of the total surface area (FIG. 5).

For the molecule “hUcn 3: human Urocortin 3, a selective CRF-R2 agonist (FTLSLDVPTNIMNLLFNIAKAKNLRAQAAANAHLMAQI)”, the “Insulin secretion, single agonist” value with Human islets was “enhanced”.
Still for that read-out and setting: as for “oCRF: ovine CRF, a selective CRF-R1 agonist (SQEPPISLDLTFHLLREVLEMTKADQLAQQAHSNRKLLDIA)”, the entry is “enhanced”.
For the molecule `CCCCN(CC)c1nc(C)nc2c1c(C)c(C)n2-c1c(C)cc(C)cc1C` [antalarmin], the “Effect of antagonist on the synergistic enhancement of insulin secretion” value in the assay with Human islets (human islets co-stimulated with CRF1 and CRF2 receptor agonists, antagonist added) is “inhibited”.

B1: Ucn 1: Urocortin 1, agonist of both CRF1 and CRF2 receptors, expressed transgenically in mouse beta cells under doxycycline control (protein, listed as Homo sapiens)
chain: MRQAGRAALLAALLLLVQLCPGSSQRSPEAAGVQDPSLRWSPGARNQGGGARALLLLLAERFPRRAGPGRLGLGTAGERPRRDNPSLSIDLTFHLLRTLLELARTQSQRERAEQNRIIFDSVGK
Take B1: in assay [1], the “Beta cell mass (insulin+ surface area as a percentage of total pancreas surface area)” value is recorded as “robust increase”.
